pIC50, pKd: −log10 of the molar value. The source made the active and inactive calls. The rule behind the calls is not given here.
Columns and labels:
[1] = Binding affinity to STAT3 K591A mutant (unknown origin) expressed in Escherichia coli by CM5 sensor chip immobilization based SPR assay; design: species or system Homo sapiens
[2] = test system: MDA-MB-468; test: Antiproliferative activity against human MDA-MB-468 cells harboring active STAT3 assessed as reduction in cell growth incubated for 24 hrs by CCK8 assay; assay type: functional, cell-based; settings: MDA-MB-468, 24 h
[3] = test system: MDA-MB-231; test: Antiproliferative activity against human MDA-MB-231 cells harboring active STAT3 assessed as reduction in cell growth incubated for 24 hrs by CCK8 assay; assay type: functional, cell-based; settings: MDA-MB-231, 24 h
[4] = test system: DU-145; test: Antiproliferative activity against human DU-145 cells harboring active STAT3 assessed as reduction in cell growth incubated for 24 hrs by CCK8 assay; assay type: functional, cell-based; settings: DU-145, 24 h
[5] = test system: MCF7; test: Antiproliferative activity against human MCF7 cells assessed as reduction in cell growth incubated for 24 hrs by CCK8 assay; assay type: functional, cell-based; settings: MCF7, 24 h
[6] = target: T1, Signal transducer and activator of transcription 3 (Homo sapiens, UniProt P40763); test: Binding affinity to STAT3 (unknown origin) expressed in Escherichia coli by CM5 sensor chip immobilization based SPR assay
T1 sequence (P40763 whole entry): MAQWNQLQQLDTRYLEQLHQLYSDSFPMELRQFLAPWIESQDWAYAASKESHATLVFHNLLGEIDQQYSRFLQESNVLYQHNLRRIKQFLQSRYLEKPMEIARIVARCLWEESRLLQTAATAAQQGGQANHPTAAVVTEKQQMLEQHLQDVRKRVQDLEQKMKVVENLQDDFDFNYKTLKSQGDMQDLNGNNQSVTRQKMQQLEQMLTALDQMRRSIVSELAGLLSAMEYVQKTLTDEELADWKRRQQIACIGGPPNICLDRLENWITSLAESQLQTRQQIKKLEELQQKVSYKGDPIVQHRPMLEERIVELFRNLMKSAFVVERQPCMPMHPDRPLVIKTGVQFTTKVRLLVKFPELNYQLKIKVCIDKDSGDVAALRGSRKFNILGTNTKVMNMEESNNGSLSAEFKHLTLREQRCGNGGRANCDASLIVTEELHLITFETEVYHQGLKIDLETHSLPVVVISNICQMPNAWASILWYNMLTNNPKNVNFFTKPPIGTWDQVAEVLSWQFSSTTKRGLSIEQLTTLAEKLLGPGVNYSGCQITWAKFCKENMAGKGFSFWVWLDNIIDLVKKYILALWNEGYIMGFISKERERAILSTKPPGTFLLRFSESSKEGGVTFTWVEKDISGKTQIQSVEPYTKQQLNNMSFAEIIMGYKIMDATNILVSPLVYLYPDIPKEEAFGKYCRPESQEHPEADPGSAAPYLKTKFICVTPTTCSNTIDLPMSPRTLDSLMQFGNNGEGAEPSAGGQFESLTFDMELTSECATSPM

[7] = Binding affinity to STAT3 R595G mutant (unknown origin) expressed in Escherichia coli by CM5 sensor chip immobilization based SPR assay; design: species or system Homo sapiens
[8] = Binding affinity to STAT3 C712G mutant (unknown origin) expressed in Escherichia coli by CM5 sensor chip immobilization based SPR assay; design: species or system Homo sapiens
[9] = Binding affinity to STAT3 K591A/S611G mutant (unknown origin) expressed in Escherichia coli by CM5 sensor chip immobilization based SPR assay; design: species or system Homo sapiens
[10] = Binding affinity to STAT3 I643S/Q635G mutant (unknown origin) expressed in Escherichia coli by CM5 sensor chip immobilization based SPR assay; design: species or system Homo sapiens
[11] = target: T1, Signal transducer and activator of transcription 3; test: Inhibition of STAT3-dependent transcriptional activity in human HeLa cells transfected with p-Luc-TKS3 assessed as reduction in luciferase expression incubated for 24 hrs by dual luciferase reporter gene assay; assay type: cell-based
[12] = target: T1, Signal transducer and activator of transcription 3; test: Inhibition of STAT3 in human MDA-MB-468 cells assessed as reduction in STAT3 Y705 residue phosphorylation incubated for 24 hrs by Western blot analysis; assay type: cell-based; settings: dose 1-30 µM
[13] = test system: MDA-MB-468; test: Effect on STAT3 expression in human MDA-MB-468 cells at 1 to 30 uM incubated for 24 hrs by Western blot analysis; assay type: functional, cell-based; settings: dose 1-30 µM
[14] = target: T2, Signal transducer and activator of transcription 1-alpha/beta (Homo sapiens) (UniProt P42224); test: Inhibition of STAT1 in human MDA-MB-468 cells assessed as reduction in STAT1 phosphorylation at 1 to 30 uM incubated for 24 hrs by Western blot analysis; assay type: cell-based; settings: dose 1-30 µM
T2 sequence (whole entry): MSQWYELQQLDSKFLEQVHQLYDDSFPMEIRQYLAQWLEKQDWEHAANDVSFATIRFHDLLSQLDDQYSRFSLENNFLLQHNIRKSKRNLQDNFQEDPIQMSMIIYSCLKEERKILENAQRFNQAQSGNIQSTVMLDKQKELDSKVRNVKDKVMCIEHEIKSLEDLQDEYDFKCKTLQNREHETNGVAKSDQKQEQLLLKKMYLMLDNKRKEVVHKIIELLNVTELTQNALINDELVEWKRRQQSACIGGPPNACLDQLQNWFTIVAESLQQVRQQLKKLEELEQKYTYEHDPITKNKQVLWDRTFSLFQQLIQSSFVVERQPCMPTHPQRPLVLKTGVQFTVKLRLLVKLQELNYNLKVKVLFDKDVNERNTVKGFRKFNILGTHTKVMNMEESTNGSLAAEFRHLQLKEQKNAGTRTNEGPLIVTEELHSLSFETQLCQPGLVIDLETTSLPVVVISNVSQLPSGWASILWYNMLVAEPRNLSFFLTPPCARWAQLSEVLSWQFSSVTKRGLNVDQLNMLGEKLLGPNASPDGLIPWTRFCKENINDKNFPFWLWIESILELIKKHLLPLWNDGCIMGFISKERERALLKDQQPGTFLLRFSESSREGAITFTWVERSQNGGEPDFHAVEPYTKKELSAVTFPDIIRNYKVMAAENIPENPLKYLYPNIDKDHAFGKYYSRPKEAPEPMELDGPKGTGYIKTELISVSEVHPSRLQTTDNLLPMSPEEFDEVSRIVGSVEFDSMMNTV

[15] = target: T3, Signal transducer and activator of transcription 5A (Homo sapiens) (UniProt P42229); test: Inhibition of STAT5 in human MDA-MB-468 cells assessed as reduction in STAT5 phosphorylation at 1 to 30 uM incubated for 24 hrs by Western blot analysis; assay type: cell-based; settings: dose 1-30 µM
T3 sequence (whole entry): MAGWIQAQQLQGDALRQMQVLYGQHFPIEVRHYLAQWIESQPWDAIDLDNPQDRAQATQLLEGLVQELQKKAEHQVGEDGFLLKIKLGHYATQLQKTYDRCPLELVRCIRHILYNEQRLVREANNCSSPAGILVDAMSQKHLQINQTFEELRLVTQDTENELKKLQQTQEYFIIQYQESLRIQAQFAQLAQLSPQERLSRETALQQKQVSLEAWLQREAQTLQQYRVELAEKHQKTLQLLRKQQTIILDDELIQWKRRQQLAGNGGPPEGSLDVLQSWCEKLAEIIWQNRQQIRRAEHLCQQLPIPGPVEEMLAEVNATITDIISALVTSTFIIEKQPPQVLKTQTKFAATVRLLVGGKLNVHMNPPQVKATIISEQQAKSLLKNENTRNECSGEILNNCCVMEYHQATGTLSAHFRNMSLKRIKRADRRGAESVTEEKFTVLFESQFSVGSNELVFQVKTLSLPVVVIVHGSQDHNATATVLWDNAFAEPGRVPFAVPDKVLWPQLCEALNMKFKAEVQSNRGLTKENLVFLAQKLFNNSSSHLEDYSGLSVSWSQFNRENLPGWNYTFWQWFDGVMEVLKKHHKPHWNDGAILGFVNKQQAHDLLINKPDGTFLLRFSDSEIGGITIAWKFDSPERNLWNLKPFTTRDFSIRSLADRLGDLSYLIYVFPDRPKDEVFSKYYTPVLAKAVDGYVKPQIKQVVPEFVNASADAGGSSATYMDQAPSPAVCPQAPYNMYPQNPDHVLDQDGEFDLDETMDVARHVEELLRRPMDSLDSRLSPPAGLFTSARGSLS

[16] = target: T1, Signal transducer and activator of transcription 3; test: Inhibition of STAT3 in human MDA-MB-468 cells assessed as reduction in Bcl-XL expression at 1 to 30 uM incubated for 24 hrs by Western blot analysis; assay type: cell-based; settings: dose 1-30 µM
[17] = test system: MDA-MB-468; test: Antimigratory activity against human MDA-MB-468 cells assessed as reduction in cell migration incubated for 24 hrs by transwell study based analysis; assay type: functional; settings: dose 10-30 µM
[18] = target: T1, Signal transducer and activator of transcription 3; test: Displacement of fluorescein-labeled pYLPQTV-NH2 from STAT3 SH2 domain (unknown origin) by fluorescence polarization assay
[19] = species: Homo sapiens; test: Selectivity ratio of Kd for STAT3 I643S/Q635G mutant (unknown origin) expressed in Escherichia coli to Kd for wild type STAT3 (unknown origin) expressed in Escherichia coli by CM5 sensor chip immobilization based SPR assay

SMILES: O=C1c2ccccc2C(=O)c2cc(S(=O)(=O)Nc3ccc(O)cc3)ccc21
- pKd [1]: 5.42
- pIC50 [2]: 5.29
- pIC50 [3]: 4.86
- pIC50 [4]: 4.20
- pIC50 [5]: 3.87
- Activity [6]: Dose-dependent effect
- pKd [6]: 5.34
- pKd [7]: 5.19
- pKd [8]: 4.73
- pKd [9]: 5.32
- pKd [10]: 4.64
- pIC50 [11]: 4.90
- inhibition [11]: Dose-dependent effect
- inhibition [12]: Dose-dependent effect
- Activity [13]: inactive
- inhibition [14]: Active
- inhibition [15]: Active
- inhibition [16]: Active
- Activity [17]: Dose-dependent effect
- inhibition [18]: Active
- Selectivity ratio [19]: 4
